Values quoted from earlier work as cited in US10494420B2, “Mast cell stabilizers for treatment of hypercytokinemia and viral infection” (priority 2016, dated 2019).

Columns and labels:
H5N1 Influenza Virus = details: mouse, in vivo
[1] = intranasal delivery versus any other route, rabbits

## CN1CCC(=C2c3ccccc3CC(=O)c3sccc32)CC1 [ketotifen]
Mast cells
  mast cell degranulation and release of mediators (histamine, TNF-α, prostaglandins, leukotrienes, interleukins): inhibit mast cell degranulation
H5N1 Influenza Virus
  impact on survival: increased when the compounds were combined
  survival of mice: increase survival of mice
[1]
  bioavailability: more bioavailable using intranasal delivery
